Assays:
Assay type in all cases: cell-based
[1] = tested on: HBsAg; experiment: PHH HBV natural infection assay, HBsAg (alphalisa); conditions: Hepatitis B virus, Hepatocyte, 72 h, read-out: HBsAg IC50
Description: (§1) Detailed procedures regarding primary human hepatocyte (PHH) HBV natural infection assay are described as below. One tube of frozen PHH (10 million cells) is thawed in 37° C. water bath and then transferred to 20 mL of PHH thawing medium (Sigma, InVitroGRO HT Medium, Cat. S03319) with gently mixing. The cells were then centrifuged at […] for 5 min, the supernatant was discarded and the tube was refilled with 25 mL of PHH plating medium (Sigma, InVitroGRO CP Medium, Cat. 503317). The tube was shaken very gently to re-suspend all cells. 50 μl of cells were transferred to each well 384-well collagen I coated plate with appropriate liquid handling equipment, e.g. Integra VIAFLO384 or Agilent Bravo. The cells were then cultured for 24 hours in a cell incubator. For HBV infection, after PHH attachment on the culture plate, the plating medium was removed and replenished with PHH culture medium containing HBV virus. The PHH culture medium was prepared with Dulbecco's Modified Eagle Medium (DMEM)/F12 (1:1 in volume ratio) containing 10% fetal bovine serum (Gibco, Cat. 10099141), […] (Gibco, Cat. PHG03I1L), 20 ng/mL dexamethasone (Sigma, Cat. D4902-100 mg), 250 ng/mL human recombinant insulin (Gibco, Cat. 41400045) and 100 U/mL penicillin. HBV virus at 200 genome equivalent (GE) per cell with 4% PEG8000 (Sigma, Cat. P1458) containing culture medium were added to the PHH culture medium for infection. The cells were then cultured for 24 hours in cell incubator. Then the cell culture supernatant was removed. The HBV-infected PHH were cultured with sandwich culture method with PHH culture medium containing 1% DMSO and 0.25 mg/mL matrix gel for 72 hours. The supernatant was then refreshed with PHH culture medium containing different concentrations of testing compounds for two times with 72-hour interval. At the end of treatment, the supernatant was collected for viral markers measurements, including HBsAg, HBeAg, HBV DNA and cytotoxicity. HBsAg and HBeAg were detected using alphalisa method using their specific antibodies. For HBV DNA detection, HBV DNA Quantitative Fluorescence Diagnostic Kit (Sansure Biotech Inc.) was used following the manufacture's protocol. Cytotoxicity was determined using Cell Counting Kit-8 (CCK8, Dojindo Molecular Technologies, Inc.).
(§2) The compounds of the present invention were tested for their capacity to inhibit HBsAg and HBeAg as described herein.

[2] = tested on: HBeAg; experiment: PHH HBV natural infection assay, HBeAg (alphalisa); conditions: Hepatitis B virus, Hepatocyte, 72 h, read-out: HbeAg IC50
Description: as §1, §2

[3] = Cytotoxicity in PHH natural infection assay (Cell Counting Kit-8); conditions: HBV-infected primary human hepatocytes, CCK8
Description: as §1

SMILES	IC50 [1]	IC50 [2]	CC50 at 144 h [3]
O=C(NC12CCC(c3nc4cc(Cl)ccc4o3)(CC1)CC2)c1ccc(C(F)(F)F)o1 [Example 47, N-[4-(5-chloro-1,3-benzoxazol-2-yl)-1-bicyclo[2.2.2]octanyl]-5-(trifluoromethyl)furan-2-carboxamide]	7.69 µM	3.91 µM	> 100 µM
O=C(NC12CCC(c3nc4cc(Cl)ccc4o3)(CC1)CC2)C1CC2(C1)CS(=O)(=O)C2 [Example 48, N-[4-(5-chloro-1,3-benzoxazol-2-yl)-1-bicyclo[2.2.2]octanyl]-2,2-dioxo-2lambda6-thiaspiro[3.3]heptane-6-carboxamide]	1.71 µM	1.03 µM	> 100 µM
O=C(NC12CCC(c3nc4cc(Cl)ccc4o3)(CC1)CC2)C1CCCS1(=O)=O (stereo not drawn) [Example 49, N-[4-(5-chloro-1,3-benzoxazol-2-yl)-1-bicyclo[2.2.2]octanyl]-1,1-dioxo-thiolane-2-carboxamide]	2.73 µM	1.27 µM	> 100 µM
O=C(NC12CCC(c3nc4cc(Cl)ccc4o3)(CC1)CC2)C1CCS(=O)(=O)C1 (stereo not drawn) [Example 50, N-[4-(5-chloro-1,3-benzoxazol-2-yl)-1-bicyclo[2.2.2]octanyl]-1,1-dioxo-thiolane-3-carboxamide]	4.14 µM	5.11 µM	> 100 µM
CC1(C(=O)NC23CCC(c4nc5cc(Cl)ccc5o4)(CC2)CC3)CCS(=O)(=O)C1 (stereo not drawn) [Example 51, N-[4-(5-chloro-1,3-benzoxazol-2-yl)-1-bicyclo[2.2.2]octanyl]-3-methyl-1,1-dioxo-thiolane-3-carboxamide]	9.21 µM	4.87 µM	> 100 µM
O=C(NC12CCC(c3nc4cc(Cl)ccc4o3)(CC1)CC2)C1CCCS(=O)(=O)C1 (stereo not drawn) [Example 52, N-[4-(5-chloro-1,3-benzoxazol-2-yl)-1-bicyclo[2.2.2]octanyl]-1,1-dioxo-thiane-3-carboxamide]	2.76 µM	1.06 µM	> 100 µM
O=C(CC1CCCS1(=O)=O)NC12CCC(c3nc4cc(Cl)ccc4o3)(CC1)CC2 (stereo not drawn) [Example 53, N-[4-(5-chloro-1,3-benzoxazol-2-yl)-1-bicyclo[2.2.2]octanyl]-2-(1,1-dioxothiolan-2-yl)acetamide]	2.28 µM	1.87 µM	> 100 µM
O=C(CC1CCCS(=O)(=O)C1)NC12CCC(c3nc4cc(Cl)ccc4o3)(CC1)CC2 (stereo not drawn) [Example 54, N-[4-(5-chloro-1,3-benzoxazol-2-yl)-1-bicyclo[2.2.2]octanyl]-2-(1,1-dioxothian-3-yl)acetamide]	3.38 µM	3.22 µM	43.9 µM
O=C(CN1CCCCS1(=O)=O)NC12CCC(c3nc4cc(Cl)ccc4o3)(CC1)CC2 [Example 55, N-[4-(5-chloro-1,3-benzoxazol-2-yl)-1-bicyclo[2.2.2]octanyl]-2-(1,1-dioxothiazinan-2-yl)acetamide]	2.06 µM	0.888 µM	> 100 µM

Source: US20230286929A1, “AROMATIC BRIDGED RING AMIDE DERIVATIVES FOR THE TREATMENT AND PROPHYLAXIS OF HEPATITIS B VIRUS INFECTION” (Hoffmann-La Roche Inc., priority 2020, published 2023)
